# From paper PMC7405012, “Detection of Chaetomium globosum, Ch. cochliodes and Ch. rectangulare during the Diversity Tracking of Mycotoxin-Producing Chaetomium-like Isolates Obtained in Buildings in Finland” (Toxins, 2020)
# Like-named read-outs stand apart in the source and are kept apart here.
# Experiments:
# Experiment in all cases: Resistance to biocides: conidial germination
# Format in all cases: cell-based
# [1] = tested on: Paecilomyces variotii Pac2/kop; conditions: strain Pac2/kop, indoor Paecilomyces variotii; read-out: EC50
# Experimental: (§1) The toxicity of biocides and chemicals towards the indoor Chaetomium-like isolates and the reference indoor strains of the genera Aspergillus, Paecilomyces, Penicillium and Trichoderma was assessed in parallel with the six parameters presented in the Supplementary Materials: (1) germ tube assay (Figure S3); (2) estimation of turbidity (Figure S4); (3) visual emission of fluorescence (excitation at 360 nm); (4) visual resporulation of conidia; (5) inhibition of glucose consumption; and (6) resazurin reduction. All assays were performed in malt extract broth (12 g L^−1 malt extract, 7.2 µmol mL^−1 glucose, pH 5.5; Scharlab, Barcelona, Spain) in 96-well microtiter plates as described for the ICP assay.
# (§2) The assays measuring inhibition of germination of conidia were done with spore suspensions of 1–2 × 10^6 fungal spores mL−^1. The tests were performed in malt extract broth (Oxoid, Hampshire United Kingdom) 12 g in 1 L, pH 5.5, glucose 7.1 mmol L^−1, and performed on microtiter plates as described by Bencsik et al. for the ICP assay. The germ tube germination is visualized in Figure S3, and the tests estimating turbidity and emission of fluorescence provoked by the germinated and metabolically active conidia and C. globosum ascospores are visualized in Figures S4 and S5. Examples of the tests estimating fluorescence emission, turbidity and re-sporulation of conidia and ascospores are compared in Figure S5. The difference of the endpoints measured with the different assays was between […]. The resazurin reduction assays (Figure S6) were performed as described for the ICP assay, except that the microtiter plates were visually inspected for the change of the blue/violet color of resazurin (indicating inhibition of germination of the exposed conidia) to the […] (indicating metabolic activity and germination of the exposed conidia).
# (§3) The formation of germ tubes was inspected by a phase-contrast microscope (Olympus CKX41, Tokyo, Japan; magnification 400×) and an image recording software (Cellsense® standard version 11.0.06, Olympus Soft Imaging Solutions GmbH, Münster, Germany, 2012) after 1 and 2 days of incubation at 28 °C. The EC50 corresponded to the inhibition of 50% (estimated as the concentration between EC0 and EC100) of the conidia compared to the ethanol control (the growth medium containing 1% of ethanol). The tests were run in triplicate and calibrated with triclosan (CAS: 3380-34-5; Sigma Chemical Co., St. Louis, MO, USA) giving a mean SD of ±<20%.
# [2] = tested on: Aspergillus westerdijkiae AW/KL; conditions: strain AW/KL
# Experimental: as §1, §2, §3
# [3] = tested on: Indoor Trichoderma atroviride 14/AM; conditions: strain 14/AM, read-out: EC50
# Experimental: as §1, §2, §3
# [4] = tested on: Aspergillus section Nigri Asp 32; conditions: strain Asp 32, indoor Aspergillus section Nigri; read-out: EC50
# Experimental: as §1, §2, §3
# [5] = tested on: Aspergillus calidoustus MH4; conditions: strain MH4, indoor Aspergillus calidoustus; read-out: EC50
# Experimental: as §1, §2, §3
# [6] = tested on: Penicillium sp. 35/skk; conditions: strain 35/skk, indoor Penicillium sp.
# Experimental: as §1, §2, §3
# [7] = tested on: Paecilomyces sp. Pec1/skk; conditions: strain Pec1/skk, indoor Paecilomyces sp.; read-out: EC50
# Experimental: as §1, §2, §3
# [8] = tested on: Indoor Trichoderma atroviride Ke14; conditions: strain Ke14, indoor Trichoderma atroviride; read-out: EC50
# Experimental: as §1, §2, §3
# [9] = tested on: Aspergillus section Flavi 1/37; conditions: strain 1/37, indoor Aspergillus section Flavi
# Experimental: as §1, §2, §3
# [10] = tested on: Paecilomyces variotii Pac1/kop; conditions: strain Pac1/kop, indoor Paecilomyces variotii; read-out: EC50
# Experimental: as §1, §2, §3
# [11] = tested on: Paecilomyces sp. Pec1/his; conditions: strain Pec1/his, indoor Paecilomyces sp.; read-out: EC50
# Experimental: as §1, §2, §3
# [12] = tested on: Penicillium sp. Vaip/skk; conditions: strain Vaip/skk, indoor Penicillium sp.
# Experimental: as §1, §2, §3
# [13] = tested on: Aspergillus versicolor Gas/226; conditions: strain Gas/226, Aspergillus versicolor; read-out: EC50
# Experimental: as §1, §2, §3
# [14] = tested on: Trichoderma longibrachiatum THG; conditions: strain THG, indoor Trichoderma longibrachiatum; read-out: EC50
# Experimental: as §1, §2, §3
# [15] = tested on: Aspergillus westerdijkiae PP3; conditions: strain PP3, Aspergillus westerdijkiae
# Experimental: as §1, §2, §3
# [16] = tested on: Indoor Trichoderma atroviride H1/226; conditions: strain H1/226, indoor Trichoderma atroviride; read-out: EC50
# Experimental: as §1, §2, §3
# [17] = tested on: Trichoderma citrinoviride SJ40; conditions: strain SJ40, indoor Trichoderma citrinoviride; read-out: EC50
# Experimental: as §1, §2, §3
# [18] = tested on: Aspergillus section Flavi 7D; conditions: strain 7D, indoor Aspergillus section Flavi
# Experimental: as §1, §2, §3
# [19] = tested on: Indoor Trichoderma atroviride KIV10; conditions: strain KIV10, indoor Trichoderma atroviride
# Experimental: as §1, §2, §3
# [20] = tested on: Penicillium sp. 26/skk; conditions: strain 26/skk, indoor Penicillium sp.
# Experimental: as §1, §2, §3
# [21] = tested on: Aspergillus section Nigri Asp21; conditions: strain Asp21, indoor Aspergillus section Nigri; read-out: EC50
# Experimental: as §1, §2, §3
# [22] = tested on: Aspergillus westerdijkiae PP2; conditions: strain PP2, Aspergillus westerdijkiae
# Experimental: as §1, §2, §3
# [23] = tested on: Penicillium sp. 20b/skk; conditions: strain 20b/skk, indoor Penicillium sp.
# Experimental: as §1, §2, §3
# [24] = tested on: Aspergillus section Nigri Asp33b; conditions: strain Asp33b, indoor Aspergillus section Nigri; read-out: EC50
# Experimental: as §1, §2, §3
# [25] = tested on: Penicillium sp. HJ2; conditions: strain HJ2, indoor Penicillium sp.; read-out: EC50
# Experimental: as §1, §2, §3
# [26] = tested on: Aspergillus versicolor SL/3; conditions: strain SL/3, Aspergillus versicolor
# Experimental: as §1, §2, §3
structure (smiles),measurement,setting,value
"O=BOB(O)OB(O)OB=O [Borax, sodium tetraborate]",EC50,[1],≥ 5000 µg/mL
same,EC50,[2]; read-out: EC50,2500 µg/mL
same,EC50,[3],1200 µg/mL
same,EC50,[4],≥ 5000 µg/mL
same,EC50,[5],5000 µg/mL
same,EC50,"[6]; SP.35/SKK, read-out: EC50",5000 µg/mL
same,EC50,[7],≥ 5000 µg/mL
same,EC50,[8],1200 µg/mL
same,EC50,"[9]; FLAVI1/37, read-out: EC50",5000 µg/mL
same,EC50,[10],≥ 5000 µg/mL
same,EC50,[11],≥ 5000 µg/mL
same,EC50,[12]; read-out: EC50,> 5000 µg/mL
same,EC50,[13],5000 µg/mL
same,EC50,[14],1200 µg/mL
same,EC50,[15]; read-out: EC50,5000 µg/mL
same,EC50,[16],1200 µg/mL
same,EC50,[17],1200 µg/mL
same,EC50,"[18]; FLAVI7D, read-out: EC50",2500 µg/mL
same,EC50,[19]; read-out: EC50,2500 µg/mL
same,EC50,"[20]; SP.26/SKK, read-out: EC50",> 5000 µg/mL
same,EC50,[21],≥ 5000 µg/mL
same,EC50,[22]; read-out: EC50,5000 µg/mL
same,EC50,"[23]; SP.20B/SKK, read-out: EC50",> 5000 µg/mL
same,EC50,[24],≥ 5000 µg/mL
same,EC50,[25],2500 µg/mL
same,EC50,[26]; read-out: EC50,5000 µg/mL
"NCl [Chloramine, chloramine]",EC50,[2],600 µg/mL
same,EC50,[6],600 µg/mL
same,EC50,[9],600 µg/mL
same,EC50,[12],600 µg/mL
same,EC50,[15],600 µg/mL
same,EC50,[18],600 µg/mL
same,EC50,[19],2400 µg/mL
same,EC50,[20],600 µg/mL
same,EC50,[22],600 µg/mL
same,EC50,[23],600 µg/mL
same,EC50,[26],600 µg/mL
